Test results taken from ChEMBL document CHEMBL3351673, “Synthesis and evaluation of new indole-based chalcones as potential antiinflammatory agents” (Eur J Med Chem, 2015).
pIC50: −log10 of the molar value. Converted amounts (≈) assume the structure as drawn.

Assays:
[1] = test system: Rattus norvegicus; assay: Antiinflammatory activity in Sprague-Dawley rat model of LPS-induced sepsis assessed as serum MDA level at 5 mg/kg/day dosed through gastric intubation for 6 days (reference value: 4.7 +/- 2.8 mg/L); type: functional
[2] = test system: Rattus norvegicus; assay: Antiinflammatory activity in Sprague-Dawley rat model of LPS-induced sepsis assessed as MPO level at 5 mg/kg/day dosed through gastric intubation for 6 days (reference value: 4.2 +/- 1.8 […]); type: functional
[3] = test system: Rattus norvegicus; assay: Antiinflammatory activity in Sprague-Dawley rat model of LPS-induced sepsis assessed as AST level at 5 mg/kg/day dosed through gastric intubation for 6 days (reference value: 148.9 +/- 41.3 U/L); type: functional
[4] = test system: Rattus norvegicus; assay: Antiinflammatory activity in Sprague-Dawley rat model of LPS-induced sepsis assessed as ALT level at 5 mg/kg/day dosed through gastric intubation for 6 days (reference value: 70.3 +/- 7.9 U/L); type: functional
[5] = test system: Rattus norvegicus; assay: Antiinflammatory activity in Sprague-Dawley rat model of LPS-induced sepsis assessed as hsCRP level at 5 mg/kg/day dosed through gastric intubation for 6 days (reference value: 1.9 +/- 0.3 mg/L); type: functional
[6] = Cytotoxicity against mouse NIH/3T3 cells incubated for 24 hrs by CCK8 assay; type: cell-based; conditions: NIH3T3, 24 h
[7] = biological target: T1, Prostaglandin G/H synthase 1 (Ovis aries, UniProt P05979); assay: Inhibition of ovine COX1 using arachidonic acid substrate incubated for 5 mins by colorimetry
T1 sequence (P05979 whole entry): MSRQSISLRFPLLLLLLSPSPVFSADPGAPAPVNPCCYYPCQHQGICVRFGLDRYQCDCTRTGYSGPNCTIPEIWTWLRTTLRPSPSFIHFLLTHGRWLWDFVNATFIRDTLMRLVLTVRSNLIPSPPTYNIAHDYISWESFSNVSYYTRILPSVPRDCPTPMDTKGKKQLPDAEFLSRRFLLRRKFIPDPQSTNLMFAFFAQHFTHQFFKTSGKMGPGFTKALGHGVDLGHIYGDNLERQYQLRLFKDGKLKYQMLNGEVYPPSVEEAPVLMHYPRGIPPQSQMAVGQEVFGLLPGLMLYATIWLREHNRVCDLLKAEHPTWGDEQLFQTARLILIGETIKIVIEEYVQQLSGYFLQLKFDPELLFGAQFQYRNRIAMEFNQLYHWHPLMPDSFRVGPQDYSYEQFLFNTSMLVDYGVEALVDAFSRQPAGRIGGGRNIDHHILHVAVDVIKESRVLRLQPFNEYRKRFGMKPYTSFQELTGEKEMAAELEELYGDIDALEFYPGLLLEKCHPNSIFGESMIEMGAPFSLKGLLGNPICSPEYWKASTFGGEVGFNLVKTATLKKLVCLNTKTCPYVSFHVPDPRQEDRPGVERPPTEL

[8] = test system: Rattus norvegicus; assay: Antiinflammatory activity in Sprague-Dawley rat model of LPS-induced sepsis assessed as nitric oxide level at 5 mg/kg/day dosed through gastric intubation for 6 days by cadmium reduction method (reference value: 28.6 +/- 2.4 umol/L); type: functional

SMILES	pIC50 [7]	Activity [1] [nmol/mL]	Activity [2] [U/L]	Activity [3] [U/L]	Activity [4] [U/L]	Activity [5] [mg/L]	IC50 [6] [µg/mL]	Activity [8] [µmol/L]
N#Cc1ccc(C(=O)/C=C/c2c[nH]c3ccc(Cl)cc23)cc1	< 4.49	–	–	–	–	–	33.3 (≈ 109 µM)	–
COc1ccc2c(c1)c(CC(=O)O)c(C)n2C(=O)c1ccc(Cl)cc1 [INDOMETHACIN]	–	2.7	0.6	92.5	67.6	1.1	–	26.2
CS(=O)(=O)c1ccc(C(=O)/C=C/c2c[nH]c3ccc(Cl)cc23)cc1	< 4.56	–	–	–	–	–	21 (≈ 58.4 µM)	–
Cn1cc(/C=C/C(=O)c2ccc(S(C)(=O)=O)cc2)c2ccccc21	< 4.53	–	–	–	–	–	350 (≈ 1030 µM)	–
COc1ccc2[nH]cc(/C=C/C(=O)c3ccc(C#N)cc3)c2c1	< 4.48	–	–	–	–	–	20 (≈ 66.2 µM)	–
CC(=O)Nc1ccc(C(=O)/C=C/c2cn(C)c3ccccc23)cc1	< 4.50	–	–	–	–	–	96.6 (≈ 303 µM)	–

Now from value to molecule, other results behind:

pIC50 [7]	SMILES	Activity [1] [nmol/mL]	Activity [2] [U/L]	Activity [3] [U/L]	Activity [4] [U/L]	Activity [5] [mg/L]	IC50 [6] [µg/mL]	Activity [8] [µmol/L]
4.64	N#Cc1ccc(C(=O)/C=C/c2c[nH]c3ccc(Br)cc23)cc1	2.5	0.8	98.8	62.4	0.6	51.6 (≈ 147 µM)	26.2
4.62	COc1ccc2[nH]cc(/C=C/C(=O)c3ccc(S(C)(=O)=O)cc3)c2c1	2.6	0.6	93.8	60.9	1	32.3 (≈ 90.9 µM)	25.6
4.47	Cn1cc(/C=C/C(=O)c2ccc(C#N)cc2)c2ccccc21	–	–	–	–	–	210 (≈ 733 µM)	–
< 4.61	CS(=O)(=O)c1ccc(C(=O)/C=C/c2c[nH]c3ccc(Br)cc23)cc1	–	–	–	–	–	17.3 (≈ 42.8 µM)	–
